# Results published in the NIST ThermoML archive (doi:10.1021/je5002945).
# Numbers after ± are expanded uncertainties.
# Settings: 101.33 kPa, Liquid, Vibrating tube method
mass density (293.15 K) [kg/m3],mass density (298.15 K) [kg/m3],mass density (303.15 K) [kg/m3],mass density (308.15 K) [kg/m3],mass density (313.15 K) [kg/m3],mass density (318.15 K) [kg/m3],mass density (323.15 K) [kg/m3],SMILES
951.59 ± 0.23,947.48 ± 0.23,943.29 ± 0.23,939.04 ± 0.23,934.78 ± 0.23,930.45 ± 0.23,926.06 ± 0.23,CCNC=O [N-ethylformamide]
1003.35 ± 0.23,998.91 ± 0.23,994.49 ± 0.23,990.01 ± 0.23,985.47 ± 0.23,980.88 ± 0.23,976.24 ± 0.23,CNC=O [N-methylformamide]
948.72 ± 0.07,943.86 ± 0.07,939 ± 0.07,934.08 ± 0.07,929.13 ± 0.08,924.06 ± 0.08,918.96 ± 0.08,CN(C)C=O [dimethylformamide]

# Further lines, the compound ahead of its results:
SMILES,mass density (293.15 K) [kg/m3],mass density (298.15 K) [kg/m3],mass density (303.15 K) [kg/m3],mass density (308.15 K) [kg/m3],mass density (313.15 K) [kg/m3],mass density (318.15 K) [kg/m3],mass density (323.15 K) [kg/m3]
"CCCCN(C=O)CCCC [N,N-dibutylformamide]",879.05 ± 0.23,875.12 ± 0.23,871.17 ± 0.23,867.15 ± 0.23,863.11 ± 0.23,859.01 ± 0.23,854.82 ± 0.23
"CC(=O)N(C)C [N,N-dimethylethanamide]",940.92 ± 0.23,936.3 ± 0.23,931.62 ± 0.23,926.89 ± 0.23,922.09 ± 0.23,917.23 ± 0.23,912.23 ± 0.23
